Experimental findings from ChEMBL document CHEMBL2074108, “Inhibition of P-glycoprotein activity and chemosensitization of multidrug-resistant ovarian carcinoma 2780AD cells by hexanoylglucosylceramide” (Biochem Biophys Res Commun, 1999) are described below.

Common to all, as to format: functional, cell-based
In data set [1] the target is T1, ATP-dependent translocase ABCB1 (Homo sapiens, UniProt P08183). Nature of the data set: TP_TRANSPORTER: inhibition of Rhodamine 123 efflux (R123: 10 uM, C6-GalCer: 20 uM) in 2780AD cells.
The target in data set [2] is T1, ATP-dependent translocase ABCB1. Briefly: TP_TRANSPORTER: inhibition of Rhodamine 123 efflux (R123: 10 uM, C6-SM: 10 uM) in 2780AD cells.
For data set [3] the target is unchanged. Nature of the data set: TP_TRANSPORTER: inhibition of Rhodamine 123 efflux (R123: 10 uM, C6-GlcCer: 20 uM) in 2780AD cells.
Data set [4] shares this target. Nature of the data set: TP_TRANSPORTER: inhibition of Rhodamine 123 efflux (R123: 10 uM, C6-LacCer: 20 uM) in 2780AD cells.

T1 sequence (P08183 whole entry): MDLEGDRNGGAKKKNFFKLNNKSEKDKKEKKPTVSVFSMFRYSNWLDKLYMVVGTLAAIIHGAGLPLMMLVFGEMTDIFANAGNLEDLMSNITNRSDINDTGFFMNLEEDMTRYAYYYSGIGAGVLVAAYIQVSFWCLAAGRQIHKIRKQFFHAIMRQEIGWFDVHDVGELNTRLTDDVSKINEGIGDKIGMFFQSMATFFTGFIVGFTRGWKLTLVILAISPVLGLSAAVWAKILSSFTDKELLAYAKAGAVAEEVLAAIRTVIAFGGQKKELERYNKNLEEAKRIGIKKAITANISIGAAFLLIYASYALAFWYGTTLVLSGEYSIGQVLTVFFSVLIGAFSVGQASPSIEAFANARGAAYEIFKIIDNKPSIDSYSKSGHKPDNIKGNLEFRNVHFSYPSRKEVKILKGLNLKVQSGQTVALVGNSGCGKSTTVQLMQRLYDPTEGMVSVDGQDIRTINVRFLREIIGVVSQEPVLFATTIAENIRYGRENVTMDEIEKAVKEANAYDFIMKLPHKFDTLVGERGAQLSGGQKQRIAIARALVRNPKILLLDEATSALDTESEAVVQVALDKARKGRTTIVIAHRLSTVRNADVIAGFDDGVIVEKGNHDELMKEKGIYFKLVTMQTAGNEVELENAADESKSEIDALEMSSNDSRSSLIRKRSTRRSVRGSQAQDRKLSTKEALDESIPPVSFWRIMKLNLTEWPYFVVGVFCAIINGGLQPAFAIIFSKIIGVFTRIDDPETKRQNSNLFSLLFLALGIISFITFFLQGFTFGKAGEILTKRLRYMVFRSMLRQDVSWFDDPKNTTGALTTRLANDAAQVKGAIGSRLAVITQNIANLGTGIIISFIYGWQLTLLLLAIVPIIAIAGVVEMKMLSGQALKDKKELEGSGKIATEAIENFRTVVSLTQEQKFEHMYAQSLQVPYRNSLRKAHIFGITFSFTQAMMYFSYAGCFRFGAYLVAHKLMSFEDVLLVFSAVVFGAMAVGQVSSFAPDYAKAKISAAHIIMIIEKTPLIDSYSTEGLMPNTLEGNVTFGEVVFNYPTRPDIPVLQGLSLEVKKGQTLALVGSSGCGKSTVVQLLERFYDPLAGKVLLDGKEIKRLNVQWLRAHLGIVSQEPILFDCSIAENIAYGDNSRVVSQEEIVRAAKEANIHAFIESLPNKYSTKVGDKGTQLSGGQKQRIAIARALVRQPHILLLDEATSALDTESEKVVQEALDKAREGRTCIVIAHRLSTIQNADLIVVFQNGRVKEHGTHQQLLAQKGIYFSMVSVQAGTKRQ

For the compound `CCCCCCCCCCCCC/C=C/[C@@H](O)[C@H](CO[C@@H]1O[C@H](CC)[C@H](O)[C@H](O)[C@H]1O)NC(=O)CCCCCC`, the Activity entry in data set [1] was “inhibitor [+]”.

In the case of `CCCCCCCCCCCCCCCC(O)C(CO)NC(=O)CCCCCC` (centres undefined), in data set [2], the Activity result is “inhibitor [+]”.

Turning to `CCCCCCCCCCCCC/C=C/[C@@H](O)[C@H](CO[C@@H]1O[C@H](CC)[C@@H](O)[C@H](O)[C@H]1O)NC(=O)CCCCCC`, the Activity result in data set [3] was “inhibitor [+]”.

`CCCCCCCCCCCCC/C=C/[C@@H](O)[C@H](CO[C@@H]1O[C@H](CC)[C@@H](O[C@@H]2O[C@H](CO)[C@@H](O)[C@H](O)[C@H]2O)[C@H](O)[C@H]1O)NC(=O)CCCCCC`: the Activity result in data set [4] was “inhibitor [+]”.
